Measured values published in ChEMBL document CHEMBL1150150, “New dammarane and malabaricane triterpenes from Caloncoba echinata” (J Nat Prod, 2002).

How the values were obtained:
[1] = Effect on human erythrocyte morphology assessed as transformation of erythrocytes to stomatocytes after 48 hrs by Giemsa staining; type: ADME, cell-based
[2] = Toxicity in human erythrocyte assessed as lysis at 25 to 100 ug/mL after 48 hrs by Giemsa staining; type: cell-based
[3] = Effect on human erythrocyte morphology assessed as transformation of erythrocytes to spherostomatocytes at 25 to 100 ug/mL after 48 hrs by Giemsa staining; type: ADME, cell-based
[4] = Effect on human erythrocyte morphology assessed as transformation of erythrocytes to stomatocytes S2 type at 25 to 100 ug/mL after 48 hrs by Giemsa staining; type: ADME, cell-based
[5] = Effect on human erythrocyte morphology assessed as transformation of erythrocytes to stomatocytes S1 type at 25 to 100 ug/mL after 48 hrs by Giemsa staining; type: ADME, cell-based
[6] = Effect on human erythrocyte morphology assessed as ghost cell formation at 50 to 100 ug/mL after 48 hrs by Giemsa staining; type: ADME, cell-based
[7] = Effect on human erythrocyte morphology assessed as transformation of erythrocytes to stomatocytes S1 type at 12.5 ug/mL after 48 hrs by Giemsa staining; type: ADME, cell-based
[8] = Effect on morphology of human erythrocytes assessed as occurrence of normal discocytes at 6.25 ug/mL after 48 hrs by Giemsa staining; type: ADME, cell-based; details: erythrocyte
[9] = Effect on morphology of human erythrocytes assessed as transformation of erythrocytes to stomatocytes S1 type at 6.25 ug/mL after 48 hrs by Giemsa staining; type: ADME, cell-based; details: erythrocyte
[10] = Toxicity in human erythrocytes assessed as transformation of erythrocytes to stomatocytes at 0.625 after 48 hrs by Giemsa staining; type: cell-based; details: erythrocyte
Plasmodium falciparum = test: Antiplasmodial activity against chloroquine-sensitive Plasmodium falciparum 3D7 after 48 hrs by [3H]phenylalanine uptake
[11] = Toxicity in human erythrocytes assessed as lysis at 12.5 ug/mL after 48 hrs by Giemsa staining; type: cell-based; details: erythrocyte
[12] = Effect on morphology of human erythrocytes assessed as transformation of erythrocytes to stomatocytes S2 type at 6.25 ug/mL after 48 hrs by Giemsa staining; type: ADME, cell-based; details: erythrocyte

| IC50 (Plasmodium falciparum) | SMILES | Activity [1] | Activity [2] | Activity [3] | Activity [4] | Activity [5] | Activity [6] | Activity [7] | Activity [8] | Activity [9] | Activity [10] | Activity [11] | Activity [12] |
| --- | --- | --- | --- | --- | --- | --- | --- | --- | --- | --- | --- | --- | --- |
| < 12 µg/mL | C=C(CC[C@H](O)[C@@]1(C)CC[C@H](C(C)(C)O)O1)[C@H]1CC[C@H]2[C@@]1(C)CC[C@H]1C(C)(C)C(=O)CC[C@]21C | Toxic | Toxic | Toxic | Toxic | Toxic | Toxic | Toxic | Non-toxic | Toxic | Non-toxic |  |  |
| < 12 µg/mL | C=C(CC[C@@H](O)[C@]1(C)CC[C@H](C(C)(C)O)O1)[C@H]1CC[C@H]2[C@@]1(C)CC[C@H]1C(C)(C)C(=O)CC[C@]21C | Toxic | Toxic | Toxic | Toxic | Toxic | Toxic | Toxic | Non-toxic | Toxic | Non-toxic |  |  |
| < 12 µg/mL | CC(C)=CCC[C@@](C)(O)[C@H]1CC[C@]2(C)[C@@H]1C[C@@H](O)[C@@H]1[C@@]3(C)CCC(=O)C(C)(C)[C@@H]3CC[C@]12C | Toxic | Toxic | Toxic | Toxic | Toxic | Toxic | Toxic | Non-toxic | Toxic | Non-toxic | Non-toxic | Toxic |
